# Experiments:
# [1] = test system: NCI-H1838; assay: Cytotoxicity against human NCI-H1838 cells measured after 8 days; format: functional, cell-based; conditions: NCI-H1838, 192 h
# [2] = test system: NCI-H661; assay: Cytotoxicity against human NCI-H661 cells measured after 8 days; format: functional, cell-based; conditions: NCI-H661, 192 h
# [3] = target: Mitogen-activated protein kinase 14 (Homo sapiens) (UniProt Q16539); assay: Inhibition of p38alpha (unknown origin) at 1 uM relative to control
# Mitogen-activated protein kinase 14 (Homo sapiens), sequence (Q16539 whole entry, the tested form may be a part): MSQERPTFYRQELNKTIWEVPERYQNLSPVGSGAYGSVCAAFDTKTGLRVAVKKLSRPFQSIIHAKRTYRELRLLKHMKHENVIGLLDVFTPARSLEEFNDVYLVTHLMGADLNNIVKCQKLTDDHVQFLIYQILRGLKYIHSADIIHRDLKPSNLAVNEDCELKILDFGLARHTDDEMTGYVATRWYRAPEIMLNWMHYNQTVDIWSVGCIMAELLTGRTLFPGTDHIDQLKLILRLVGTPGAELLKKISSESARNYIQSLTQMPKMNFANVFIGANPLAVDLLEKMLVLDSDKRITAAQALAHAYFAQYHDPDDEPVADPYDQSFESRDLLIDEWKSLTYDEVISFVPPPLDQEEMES
# [4] = target: T1, ATPase family AAA domain-containing protein 2B (Homo sapiens, UniProt Q9ULI0); assay: Binding affinity to human partial length ATAD2B (Q955 to R1082 residues) expressed in bacterial expression system by BROMOscan assay
# T1 sequence (Q9ULI0 whole entry): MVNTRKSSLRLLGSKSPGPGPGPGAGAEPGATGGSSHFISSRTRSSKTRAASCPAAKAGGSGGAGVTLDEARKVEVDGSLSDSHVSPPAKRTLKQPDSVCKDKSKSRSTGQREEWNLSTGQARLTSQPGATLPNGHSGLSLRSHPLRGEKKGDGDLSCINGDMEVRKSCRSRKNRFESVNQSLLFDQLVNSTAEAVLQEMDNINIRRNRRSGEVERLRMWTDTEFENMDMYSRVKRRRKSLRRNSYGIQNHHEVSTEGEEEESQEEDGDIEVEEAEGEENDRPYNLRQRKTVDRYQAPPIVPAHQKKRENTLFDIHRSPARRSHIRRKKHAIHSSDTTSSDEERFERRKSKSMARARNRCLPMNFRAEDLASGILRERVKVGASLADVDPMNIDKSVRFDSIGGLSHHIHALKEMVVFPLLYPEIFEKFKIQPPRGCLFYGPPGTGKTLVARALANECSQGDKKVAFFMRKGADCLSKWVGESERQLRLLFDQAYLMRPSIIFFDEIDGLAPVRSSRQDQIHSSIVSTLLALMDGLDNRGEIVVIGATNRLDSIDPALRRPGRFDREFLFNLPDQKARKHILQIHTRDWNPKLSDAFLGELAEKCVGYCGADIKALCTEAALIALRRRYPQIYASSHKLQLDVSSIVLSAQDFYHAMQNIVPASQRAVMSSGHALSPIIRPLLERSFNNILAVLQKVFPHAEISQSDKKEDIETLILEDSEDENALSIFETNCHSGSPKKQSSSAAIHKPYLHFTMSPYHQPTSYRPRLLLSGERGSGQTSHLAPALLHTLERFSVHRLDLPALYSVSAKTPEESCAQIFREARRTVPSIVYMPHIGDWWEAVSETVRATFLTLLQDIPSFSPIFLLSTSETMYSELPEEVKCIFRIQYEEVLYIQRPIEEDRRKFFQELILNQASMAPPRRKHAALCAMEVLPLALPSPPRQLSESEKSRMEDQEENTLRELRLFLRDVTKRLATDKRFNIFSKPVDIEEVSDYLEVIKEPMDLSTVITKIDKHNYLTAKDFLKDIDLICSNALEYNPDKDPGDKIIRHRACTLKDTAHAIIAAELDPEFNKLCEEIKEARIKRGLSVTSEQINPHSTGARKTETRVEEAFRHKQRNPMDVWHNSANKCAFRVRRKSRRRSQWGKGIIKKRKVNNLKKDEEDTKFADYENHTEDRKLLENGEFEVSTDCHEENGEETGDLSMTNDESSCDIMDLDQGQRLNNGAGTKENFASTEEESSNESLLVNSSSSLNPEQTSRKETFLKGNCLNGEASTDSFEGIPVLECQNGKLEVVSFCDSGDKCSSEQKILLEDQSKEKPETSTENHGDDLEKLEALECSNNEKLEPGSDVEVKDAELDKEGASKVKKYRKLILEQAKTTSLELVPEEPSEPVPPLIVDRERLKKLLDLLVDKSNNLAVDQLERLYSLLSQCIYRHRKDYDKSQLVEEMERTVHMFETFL
# [5] = test system: MC116; assay: Cytotoxicity against human MC116 cells measured after 8 days; format: functional, cell-based; conditions: MC116, 192 h
# [6] = target: Proto-oncogene tyrosine-protein kinase Src (Homo sapiens) (UniProt P12931); assay: Inhibition of Src (unknown origin) at 1 uM relative to control
# Proto-oncogene tyrosine-protein kinase Src (Homo sapiens), sequence (P12931 2-536 limits assumed): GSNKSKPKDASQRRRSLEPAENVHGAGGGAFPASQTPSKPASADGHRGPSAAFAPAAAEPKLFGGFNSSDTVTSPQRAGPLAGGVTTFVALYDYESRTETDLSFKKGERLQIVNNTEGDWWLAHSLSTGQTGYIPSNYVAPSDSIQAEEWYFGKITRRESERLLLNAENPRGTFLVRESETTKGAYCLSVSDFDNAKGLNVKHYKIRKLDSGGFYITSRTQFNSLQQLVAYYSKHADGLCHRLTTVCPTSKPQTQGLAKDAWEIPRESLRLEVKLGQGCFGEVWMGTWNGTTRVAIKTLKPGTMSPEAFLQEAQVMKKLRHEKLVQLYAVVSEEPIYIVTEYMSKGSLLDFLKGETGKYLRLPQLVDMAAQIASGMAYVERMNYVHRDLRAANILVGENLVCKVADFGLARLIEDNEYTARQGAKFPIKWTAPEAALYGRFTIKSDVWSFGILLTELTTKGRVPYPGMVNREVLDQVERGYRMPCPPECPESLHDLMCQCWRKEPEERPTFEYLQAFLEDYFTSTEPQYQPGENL
# [7] = test system: NCI-H441; assay: Cytotoxicity against human NCI-H441 cells measured after 8 days; format: functional, cell-based; conditions: NCI-H441, 192 h
# [8] = Cytotoxicity against human SK-MEL-23 cells measured after 8 days; format: functional, cell-based; conditions: SK-MEL-23, 192 h
# [9] = test system: JIMT-1; assay: Cytotoxicity against human JIMT-1 cells measured after 8 days; format: functional, cell-based; conditions: JIMT-1, 192 h
SMILES,IC50 [1] [µM],IC50 [2] [µM],inhibition [3] [%],Kd [4] [µM],IC50 [5] [µM],inhibition [6] [%],IC50 [7] [µM],IC50 [8] [µM],IC50 [9] [µM]
C/C=C/Cn1cc(-c2ccc(C(C)(C)O)cc2OC)c2cc[nH]c2c1=O,20,20,7,> 10,4.97,4.5,20,20,20
C/C=C/Cn1cc(-c2cc(OC)c(C(C)(C)O)cc2OC)c2cc(C)[nH]c2c1=O,–,–,–,> 10,–,–,–,–,–
C/C=C/Cn1cc(-c2ccc(C(=O)N3CCOCC3)cc2)c2cc[nH]c2c1=O,20,20,0.9,> 10,10.2,0.9,20,20,20
C/C=C/Cn1cc(-c2cc(OC)c(C(=O)N3CCOCC3)cc2OC)c2cc(C)[nH]c2c1=O,2,2,3,> 10,2,3.5,2,2,2

# From ChEMBL document CHEMBL5260810, “Inhibition of bromodomain-containing protein 9 for the prevention of epigenetically-defined drug resistance” (Bioorg Med Chem Lett, 2017)
